Data on 13 molecules can be found in patent US20250250230A1, “HETEROCYCLIC COMPOUND” (TAKEDA PHARMACEUTICAL COMPANY LIMITED, priority 2022, published 2025).

The assay has as its target T1, human orexin type 2 receptor (Homo sapiens, UniProt O43614).
T1 construct: expressed in transfected cells
T1 sequence (O43614 1-444): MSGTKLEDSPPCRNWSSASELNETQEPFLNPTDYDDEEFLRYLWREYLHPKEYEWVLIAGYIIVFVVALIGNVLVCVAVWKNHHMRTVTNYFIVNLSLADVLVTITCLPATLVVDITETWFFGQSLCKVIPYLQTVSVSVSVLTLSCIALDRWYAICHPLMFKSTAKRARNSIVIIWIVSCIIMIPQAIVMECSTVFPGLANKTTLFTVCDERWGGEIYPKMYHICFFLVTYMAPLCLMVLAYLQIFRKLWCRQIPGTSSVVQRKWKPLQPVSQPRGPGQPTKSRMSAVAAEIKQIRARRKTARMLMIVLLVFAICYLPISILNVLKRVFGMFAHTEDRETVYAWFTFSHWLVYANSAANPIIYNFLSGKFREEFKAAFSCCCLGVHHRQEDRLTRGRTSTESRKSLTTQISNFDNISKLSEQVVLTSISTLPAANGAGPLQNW
In words: Measurement of orexin type 2 receptor agonist activity (calcium fluorescence, Fluo-4 AM, FDSS). It counts as cell-based. As to conditions: test compound 3 μM; CHO cells expressing human OX2 receptor; DMSO = 0%, orexin A (human) = 100%. The text has this: To obtain a cell clone stably expressing human orexin type 2 receptor, human orexin type 2 receptor cDNA was inserted into pcDNA3.1(+) plasmid vector (Invitrogen), and a plasmid DNA for expression of human orexin type 2 receptor (pcDNA3.1(+)/hOX2R) was cloned. The plasmid DNA was introduced into CHO-K1 cell by an electroporation method, and human orexin type 2 receptor expressing clone cells were obtained by limiting dilution method by using G418 drug resistance as a selection marker.
CHO cells forcibly expressing human OX2 receptor were seeded in each well of 384 well black transparent bottom plate (BD Falcon) at 10,000 cells/well, and cultured for one day in a 5% CO2 incubator at 37° C. After removal of the medium in the cell plate, assay buffer A containing a calcium indicator (HBSS (Thermo Fisher Scientific), 20 mM HEPES (Thermo Fisher Scientific), 0.1% BSA (Sigma-Aldrich), 2.5 μg/mL Fluo-4 AM (DOJINDO Chemical), 0.08% Pluronic F127 (DOJINDO Chemical), 1.25 mM probenecid (DOJINDO Chemical)) was added at 30 μL/well. The plate was stood for 30 min in a 5% CO2 incubator at 37° C., and further stood at room temperature for 30 min. A test compound prepared by diluting with assay buffer B (HBSS, 20 mM HEPES, 0.1% BSA) was added at 10 μL/well, and the fluorescence value was measured by FDSSμCELL (Hamamatsu Photonics K.K.) every one sec for 1 min, and thereafter every two sec for […]. The activity (%) of the test compound was calculated assuming that variation in the fluorescence value when DMSO was added instead of the test compound was 0%, and variation in the fluorescence value when orexin A (human) (PEPTIDE INSTITUTE, INC.) was added at the final concentration of 10 nM was 100%.
On to `CS(=O)(=O)N[C@@H]1CCCCN(C(=O)C2CC2c2ccccc2-c2c(F)cccc2F)C1` (mixture of isomers) [Example 183, a mixture of N-{(3R)-1-[(1R,2R)-2-(2′,6′-difluoro[1,1′-biphenyl]-2-yl)cyclopropane-1-carbonyl]azepan-3-yl}methanesulfonamide and N-{(3R)-1-[(1S,2S)-2-(2′,6′-difluoro[1,1′-biphenyl]-2-yl)cyclopropane-1-carbonyl]azepan-3-yl}methanesulfonamide], for which the “OX2R agonist activity (3 μM, %)” value was determined as 78%.

In the case of `CS(=O)(=O)N[C@H]1CCCCN(C(=O)C2CC2c2ccccc2-c2c(F)cccc2F)C1` (mixture of isomers) [Example 184, a mixture of N-{(3S)-1-[(1R,2R)-2-(2′,6′-difluoro[1,1′-biphenyl]-2-yl)cyclopropane-1-carbonyl]azepan-3-yl}methanesulfonamide and N-{(3S)-1-[(1S,2S)-2-(2′,6′-difluoro[1,1′-biphenyl]-2-yl)cyclopropane-1-carbonyl]azepan-3-yl}methanesulfonamide], the “OX2R agonist activity (3 μM, %)” value came out at 108%.

Regarding `CS(=O)(=O)N[C@H]1CCN(C(=O)C2CC2c2cccc(F)c2-c2c(F)cccc2F)C1` (mixture of isomers) [Example 192, a mixture of N-{(3S)-1-[(1R,2R)-2-(2′,6,6′-trifluoro[1,1′-biphenyl]-2-yl)cyclopropane-1-carbonyl]pyrrolidin-3-yl}methanesulfonamide and N-{(3S)-1-[(1S,2S)-2-(2′,6,6′-trifluoro[1,1′-biphenyl]-2-yl)cyclopropane-1-carbonyl]pyrrolidin-3-yl}methanesulfonamide], the “OX2R agonist activity (3 μM, %)” value is reported as 95%.

Consider `CS(=O)(=O)N[C@H]1CCCN(C(=O)C2CC2c2cccc(F)c2-c2c(F)cccc2F)C1` (mixture of isomers) [Example 193, a mixture of N-{(3S)-1-[(1R,2R)-2-(2′,6,6′-trifluoro[1,1′-biphenyl]-2-yl)cyclopropane-1-carbonyl]piperidin-3-yl}methanesulfonamide and N-{(3S)-1-[(1S,2S)-2-(2′,6,6′-trifluoro[1,1′-biphenyl]-2-yl)cyclopropane-1-carbonyl]piperidin-3-yl}methanesulfonamide], for which the “OX2R agonist activity (3 μM, %)” value is 98%.

As to `CS(=O)(=O)N[C@H]1CCCN(C(=O)C2CC2c2cccc(F)c2-c2c(F)cccc2F)CC1` (mixture of isomers) [Example 194, a mixture of N-{(4S)-1-[(1R,2R)-2-(2′,6,6′-trifluoro[1,1′-biphenyl]-2-yl)cyclopropane-1-carbonyl]azepan-4-yl}methanesulfonamide and N-{(4S)-1-[(1S,2S)-2-(2′,6,6′-trifluoro[1,1′-biphenyl]-2-yl)cyclopropane-1-carbonyl]azepan-4-yl}methanesulfonamide], the “OX2R agonist activity (3 μM, %)” value was found to be 100%.

As for `CS(=O)(=O)N[C@H]1CCN(C(=O)C2CC2(F)c2ccccc2-c2c(F)cccc2F)C1` (mixture of isomers) [Example 198, a mixture of N-{(3S)-1-[(1R,2R)-2-(2′,6′-difluoro[1,1′-biphenyl]-2-yl)-2-fluorocyclopropane-1-carbonyl]pyrrolidin-3-yl}methanesulfonamide and N-{(3S)-1-[(1S,2S)-2-(2′,6′-difluoro[1,1′-biphenyl]-2-yl)-2-fluorocyclopropane-1-carbonyl]pyrrolidin-3-yl}methanesulfonamide], the “OX2R agonist activity (3 μM, %)” value was 101%.

In the case of `CS(=O)(=O)N[C@H]1CCCN(C(=O)C2CC2(F)c2ccccc2-c2c(F)cccc2F)C1` (mixture of isomers) [Example 199, a mixture of N-{(3S)-1-[(1R,2R)-2-(2′,6′-difluoro[1,1′-biphenyl]-2-yl)-2-fluorocyclopropane-1-carbonyl]piperidin-3-yl}methanesulfonamide and N-{(3S)-1-[(1S,2S)-2-(2′,6′-difluoro[1,1′-biphenyl]-2-yl)-2-fluorocyclopropane-1-carbonyl]piperidin-3-yl}methanesulfonamide], the “OX2R agonist activity (3 μM, %)” value worked out at 104%.

Turning to `O=C(C1CC1c1ccccc1-c1c(F)cccc1F)N1CCC[C@H](NS(=O)(=O)CF)C1` (mixture of isomers) [Example 207, a mixture of N-{(3S)-1-[(1R,2R)-2-(2′,6′-difluoro[1,1′-biphenyl]-2-yl)cyclopropane-1-carbonyl]piperidin-3-yl}-1-fluoromethanesulfonamide and N-{(3S)-1-[(1S,2S)-2-(2′,6′-difluoro[1,1′-biphenyl]-2-yl)cyclopropane-1-carbonyl]piperidin-3-yl}-1-fluoromethanesulfonamide], the “OX2R agonist activity (3 μM, %)” value is listed as 101%.

On to `O=C(C1CC1c1ccccc1-c1c(F)cccc1F)N1CCC[C@H](NS(=O)(=O)CBr)C1` (mixture of isomers) [Example 213, a mixture of 1-bromo-N-{(3S)-1-[(1R,2R)-2-(2′,6′-difluoro[1,1′-biphenyl]-2-yl)cyclopropane-1-carbonyl]piperidin-3-yl}methanesulfonamide and 1-bromo-N-{(3S)-1-[(1S,2S)-2-(2′,6′-difluoro[1,1′-biphenyl]-2-yl)cyclopropane-1-carbonyl]piperidin-3-yl}methanesulfonamide], for which the “OX2R agonist activity (3 μM, %)” value is on record as 100%.

Take `COCS(=O)(=O)N[C@H]1CCCN(C(=O)C2CC2c2ccccc2-c2c(F)cccc2F)C1` (mixture of isomers) [Example 214, a mixture of N-{(3S)-1-[(1R,2R)-2-(2′,6′-difluoro[1,1′-biphenyl]-2-yl)cyclopropane-1-carbonyl]piperidin-3-yl}-1-methoxymethanesulfonamide and N-{(3S)-1-[(1S,2S)-2-(2′,6′-difluoro[1,1′-biphenyl]-2-yl)cyclopropane-1-carbonyl]piperidin-3-yl}-1-methoxymethanesulfonamide]: the “OX2R agonist activity (3 μM, %)” value was determined as 95%.

Consider `COCS(=O)(=O)NC1CCN(C(=O)C2CC2c2ccccc2-c2c(F)cccc2F)C1` (mixture of isomers) [Example 227, a mixture of N-{(3S)-1-[(1R,2R)-2-(2′,6′-difluoro[1,1′-biphenyl]-2-yl)cyclopropane-1-carbonyl]pyrrolidin-3-yl}-1-methoxymethanesulfonamide and N-{(3S)-1-[(1S,2S)-2-(2′,6′-difluoro[1,1′-biphenyl]-2-yl)cyclopropane-1-carbonyl]pyrrolidin-3-yl}-1-methoxymethanesulfonamide], for which the “OX2R agonist activity (3 μM, %)” value worked out at 85%.

In the case of `CS(=O)(=O)NC1CCCN(C(=O)C2CC2c2ccccc2-c2ncccc2F)CC1` (mixture of isomers) [Example 256, a mixture of N-[(4S)-1-{(1R,2R)-2-[2-(3-fluoropyridin-2-yl)phenyl]cyclopropane-1-carbonyl}azepan-4-yl]methanesulfonamide and N-[(4S)-1-{(1S,2S)-2-[2-(3-fluoropyridin-2-yl)phenyl]cyclopropane-1-carbonyl}azepan-4-yl]methanesulfonamide], the “OX2R agonist activity (3 μM, %)” value was 52%.

For `CCS(=O)(=O)NC1COCCN(C(=O)[C@@H]2C[C@H]2c2ccccc2-c2c(F)cccc2F)C1` (mixture of isomers) [Example 257], the “OX2R agonist activity (3 μM, %)” value is 98%.
